The conditions of the data set: 101 kPa, Liquid.

± gives the expanded uncertainty stated by the source.

In general, mass density refers to mass per unit of volume. In general, viscosity refers to the internal friction of a fluid under shear. For the molecule `CN1CCCC1=O` [N-methylpyrrolidone], the mass density (303.15 K) is given as 1023.47 ± 0.53 kg/m3; the mass density (313.15 K) is listed as 1014.55 ± 0.5 kg/m3; the mass density (323.15 K) worked out at 1005.66 ± 0.47 kg/m3; the mass density (333.15 K) was 996.71 ± 0.46 kg/m3; the mass density (343.15 K) was determined as 987.75 ± 0.48 kg/m3; the mass density (353.15 K) is reported as 978.76 ± 0.51 kg/m3. Besides, the viscosity is reported as 1.554 ± 0.037 mPa·s (303.15 K); 1.332 ± 0.032 mPa·s (313.15 K); 1.16 ± 0.029 mPa·s (323.15 K); 1.022 ± 0.026 mPa·s (333.15 K); 0.908 ± 0.023 mPa·s (343.15 K); 0.8127 ± 0.021 mPa·s (353.15 K).

In the case of `c1ccccc1` [benzene], the mass density (303.15 K) was determined as 868.21 ± 0.7 kg/m3; the mass density (313.15 K) stood at 857.46 ± 0.73 kg/m3; the mass density (323.15 K) is reported as 846.65 ± 0.76 kg/m3; the mass density (333.15 K) was found to be 835.72 ± 0.8 kg/m3; the mass density (343.15 K) turned out to be 824.87 ± 0.83 kg/m3. Further, the viscosity (303.15 K) turned out to be 0.561 ± 0.015 mPa·s; the viscosity (313.15 K) worked out at 0.493 ± 0.014 mPa·s; the viscosity (323.15 K) is given as 0.436 ± 0.013 mPa·s; the viscosity (333.15 K) stood at 0.388 ± 0.012 mPa·s; the viscosity (343.15 K) is 0.345 ± 0.011 mPa·s.

With `C1CCCCC1` [cyclohexane], the mass density came out at 769.1 ± 0.97 kg/m3 (303.15 K), 759.6 ± 1 kg/m3 (313.15 K), 749.98 ± 1 kg/m3 (323.15 K) and 740.23 ± 1.1 kg/m3 (333.15 K). In addition, the viscosity is 0.821 ± 0.021 mPa·s (303.15 K), 0.696 ± 0.018 mPa·s (313.15 K), 0.598 ± 0.016 mPa·s (323.15 K) and 0.52 ± 0.014 mPa·s (333.15 K).

For the molecule `Cc1ccccc1` [toluene], the mass density is 858.32 ± 0.76 kg/m3 (303.15 K); 848.92 ± 0.79 kg/m3 (313.15 K); 839.45 ± 0.82 kg/m3 (323.15 K); 829.93 ± 0.85 kg/m3 (333.15 K); 820.3 ± 0.88 kg/m3 (343.15 K); 810.54 ± 0.91 kg/m3 (353.15 K). Also, the viscosity reads like this: (303.15 K) 0.525 ± 0.015 mPa·s; (313.15 K) 0.47 ± 0.014 mPa·s; (323.15 K) 0.423 ± 0.013 mPa·s; (333.15 K) 0.385 ± 0.012 mPa·s; (343.15 K) 0.35 ± 0.012 mPa·s; (353.15 K) 0.323 ± 0.011 mPa·s.

The values are drawn from the NIST ThermoML archive (doi:10.1016/j.jct.2006.06.005).
